Assay results: ChEMBL document CHEMBL4507276 (2021)

Experiments:
[1] = target: Serine/threonine-protein kinase TNNI3K (Homo sapiens) (UniProt Q59H18); conditions: Compound concentration 1000.0 nM
[2] = target: T1, Rhodopsin kinase GRK7 (Homo sapiens) (UniProt Q8WTQ7); test: GRK7 Invitrogen selectivity data (BI); conditions: Compound concentration 3.0 uM
T1 sequence (whole entry): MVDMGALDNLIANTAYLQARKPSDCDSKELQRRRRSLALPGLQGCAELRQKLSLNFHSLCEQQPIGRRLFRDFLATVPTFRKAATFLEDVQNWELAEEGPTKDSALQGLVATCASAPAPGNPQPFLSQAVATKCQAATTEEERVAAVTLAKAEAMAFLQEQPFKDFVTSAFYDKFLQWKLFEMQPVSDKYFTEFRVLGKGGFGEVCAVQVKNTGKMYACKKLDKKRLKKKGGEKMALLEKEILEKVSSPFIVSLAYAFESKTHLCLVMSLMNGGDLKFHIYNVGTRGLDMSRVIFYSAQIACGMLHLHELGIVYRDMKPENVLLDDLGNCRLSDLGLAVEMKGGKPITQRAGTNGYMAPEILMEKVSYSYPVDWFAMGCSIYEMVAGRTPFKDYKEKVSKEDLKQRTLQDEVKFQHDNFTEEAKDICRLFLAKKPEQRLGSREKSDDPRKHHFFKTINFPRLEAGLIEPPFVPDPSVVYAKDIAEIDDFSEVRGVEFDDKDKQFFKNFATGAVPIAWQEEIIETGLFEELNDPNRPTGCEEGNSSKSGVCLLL

[3] = target: Protein kinase C zeta type (Homo sapiens) (UniProt Q05513); test: PRKCZ Invitrogen selectivity data (BI); conditions: Compound concentration 3.0 uM
[4] = target: Adenosine receptor A2a (Homo sapiens) (UniProt P29274); test: A2A/H Cerep selectivity data (BI); conditions: filed as antagonist, Compound concentration 20.0 uM
[5] = target: CDK8/Cyclin C (Homo sapiens) (UniProt P49336+P24863); test: CDK8_CYCLINC Invitrogen selectivity data (BI); format: protein-complex assay; conditions: Compound concentration 3.0 uM
[6] = target: Receptor tyrosine-protein kinase erbB-2 (Homo sapiens) (UniProt P04626); test: ERBB2 Invitrogen selectivity data (BI); conditions: Compound concentration 3.0 uM
[7] = target: T2, cGMP-dependent protein kinase 1 (Homo sapiens) (UniProt Q13976); test: PRKG1 Invitrogen selectivity data (BI); conditions: Compound concentration 3.0 uM
T2 sequence (whole entry): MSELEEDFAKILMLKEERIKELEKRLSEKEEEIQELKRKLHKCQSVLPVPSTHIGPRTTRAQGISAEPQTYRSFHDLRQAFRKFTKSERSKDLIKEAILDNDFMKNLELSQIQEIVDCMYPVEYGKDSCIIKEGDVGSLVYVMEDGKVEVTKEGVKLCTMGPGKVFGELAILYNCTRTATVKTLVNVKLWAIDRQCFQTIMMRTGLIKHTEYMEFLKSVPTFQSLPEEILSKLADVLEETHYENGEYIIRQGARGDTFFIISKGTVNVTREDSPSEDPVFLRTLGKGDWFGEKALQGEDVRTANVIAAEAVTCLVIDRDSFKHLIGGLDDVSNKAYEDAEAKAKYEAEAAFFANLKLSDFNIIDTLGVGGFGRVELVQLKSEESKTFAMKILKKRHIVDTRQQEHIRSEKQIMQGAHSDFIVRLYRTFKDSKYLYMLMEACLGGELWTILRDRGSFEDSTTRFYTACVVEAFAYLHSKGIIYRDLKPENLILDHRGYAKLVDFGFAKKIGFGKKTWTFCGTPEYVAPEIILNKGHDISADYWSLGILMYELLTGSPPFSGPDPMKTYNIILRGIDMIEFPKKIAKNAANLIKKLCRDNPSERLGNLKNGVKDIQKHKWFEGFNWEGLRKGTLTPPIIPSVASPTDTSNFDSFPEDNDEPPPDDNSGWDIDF

[8] = target: Serine/threonine-protein kinase PAK 5 (Homo sapiens) (UniProt Q9P286); test: PAK7 Invitrogen selectivity data (BI); conditions: Compound concentration 3.0 uM
[9] = target: Mitogen-activated protein kinase 9 (Homo sapiens) (UniProt P45984); test: MAPK9 Invitrogen selectivity data (BI); conditions: Compound concentration 3.0 uM
[10] = target: Ribosomal protein S6 kinase alpha-4 (Homo sapiens) (UniProt O75676); test: RPS6KA4 Invitrogen selectivity data (BI); conditions: Compound concentration 3.0 uM
[11] = target: Tyrosine-protein kinase CSK (Homo sapiens) (UniProt P41240); test: CSK Invitrogen selectivity data (BI); conditions: Compound concentration 3.0 uM
[12] = target: Dual specificity protein kinase CLK1 (Homo sapiens) (UniProt P49759); test: CLK1 Invitrogen selectivity data (BI); conditions: Compound concentration 3.0 uM
[13] = tested on: Tyrosine-protein kinase JAK2 (Homo sapiens), O60674 [V617F]; test: JAK2 V617F Invitrogen selectivity data (BI); conditions: Compound concentration 3.0 uM
[14] = target: Rod cGMP-specific 3',5'-cyclic phosphodiesterase subunit alpha (Bos taurus) (UniProt P11541); test: PDE6_CE Cerep selectivity data (BI); conditions: Compound concentration 20.0 uM
[15] = target: T3, Serine/threonine-protein kinase Sgk1 (Homo sapiens) (UniProt O00141); test: SGK Invitrogen selectivity data (BI); conditions: Compound concentration 3.0 uM
T3 sequence (whole entry): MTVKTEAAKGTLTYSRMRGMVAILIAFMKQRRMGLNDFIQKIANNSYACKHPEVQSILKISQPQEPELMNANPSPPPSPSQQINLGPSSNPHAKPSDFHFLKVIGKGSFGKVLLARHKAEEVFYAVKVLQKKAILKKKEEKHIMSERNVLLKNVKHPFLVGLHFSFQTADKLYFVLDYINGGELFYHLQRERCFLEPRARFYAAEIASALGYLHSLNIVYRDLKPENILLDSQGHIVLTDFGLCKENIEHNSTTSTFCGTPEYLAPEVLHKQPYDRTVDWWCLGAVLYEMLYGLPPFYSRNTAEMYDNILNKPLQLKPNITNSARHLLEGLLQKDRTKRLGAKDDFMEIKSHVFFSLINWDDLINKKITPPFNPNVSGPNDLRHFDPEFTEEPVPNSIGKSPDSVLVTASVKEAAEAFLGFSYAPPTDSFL

[16] = target: Death-associated protein kinase 1 (Homo sapiens) (UniProt P53355); test: DAPK1 Invitrogen selectivity data (BI); conditions: Compound concentration 3.0 uM
[17] = target: Serine/threonine-protein kinase MRCK alpha (Homo sapiens) (UniProt Q5VT25); test: CDC42 BPA Invitrogen selectivity data (BI); conditions: Compound concentration 3.0 uM

Measured: residual activity

Chain of Mitogen-activated protein kinase 9 (Homo sapiens) (P45984 whole entry, looked up): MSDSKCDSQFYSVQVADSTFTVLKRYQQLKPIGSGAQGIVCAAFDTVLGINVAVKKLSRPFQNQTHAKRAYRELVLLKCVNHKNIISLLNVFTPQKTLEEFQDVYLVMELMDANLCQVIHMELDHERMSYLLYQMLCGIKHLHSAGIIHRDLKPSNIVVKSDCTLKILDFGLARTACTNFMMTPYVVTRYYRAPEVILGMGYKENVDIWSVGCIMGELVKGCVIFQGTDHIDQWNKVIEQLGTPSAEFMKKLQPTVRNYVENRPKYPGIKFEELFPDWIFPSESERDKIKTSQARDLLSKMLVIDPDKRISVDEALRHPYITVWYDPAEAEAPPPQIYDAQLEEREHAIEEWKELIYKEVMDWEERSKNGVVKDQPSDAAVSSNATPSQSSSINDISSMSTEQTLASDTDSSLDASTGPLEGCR
Chain of Adenosine receptor A2a (Homo sapiens) (P29274 whole entry): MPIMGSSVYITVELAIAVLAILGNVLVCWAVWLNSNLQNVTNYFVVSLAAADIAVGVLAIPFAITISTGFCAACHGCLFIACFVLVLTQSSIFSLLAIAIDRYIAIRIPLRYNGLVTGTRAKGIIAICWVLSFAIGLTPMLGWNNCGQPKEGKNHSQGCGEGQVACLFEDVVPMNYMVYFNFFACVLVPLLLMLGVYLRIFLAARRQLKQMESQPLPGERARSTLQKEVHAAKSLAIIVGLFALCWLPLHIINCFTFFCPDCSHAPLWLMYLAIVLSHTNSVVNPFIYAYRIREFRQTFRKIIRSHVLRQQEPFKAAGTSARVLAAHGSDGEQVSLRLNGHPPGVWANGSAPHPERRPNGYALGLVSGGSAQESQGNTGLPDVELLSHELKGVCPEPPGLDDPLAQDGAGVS
Chain of Serine/threonine-protein kinase TNNI3K (Homo sapiens) (Q59H18 whole entry): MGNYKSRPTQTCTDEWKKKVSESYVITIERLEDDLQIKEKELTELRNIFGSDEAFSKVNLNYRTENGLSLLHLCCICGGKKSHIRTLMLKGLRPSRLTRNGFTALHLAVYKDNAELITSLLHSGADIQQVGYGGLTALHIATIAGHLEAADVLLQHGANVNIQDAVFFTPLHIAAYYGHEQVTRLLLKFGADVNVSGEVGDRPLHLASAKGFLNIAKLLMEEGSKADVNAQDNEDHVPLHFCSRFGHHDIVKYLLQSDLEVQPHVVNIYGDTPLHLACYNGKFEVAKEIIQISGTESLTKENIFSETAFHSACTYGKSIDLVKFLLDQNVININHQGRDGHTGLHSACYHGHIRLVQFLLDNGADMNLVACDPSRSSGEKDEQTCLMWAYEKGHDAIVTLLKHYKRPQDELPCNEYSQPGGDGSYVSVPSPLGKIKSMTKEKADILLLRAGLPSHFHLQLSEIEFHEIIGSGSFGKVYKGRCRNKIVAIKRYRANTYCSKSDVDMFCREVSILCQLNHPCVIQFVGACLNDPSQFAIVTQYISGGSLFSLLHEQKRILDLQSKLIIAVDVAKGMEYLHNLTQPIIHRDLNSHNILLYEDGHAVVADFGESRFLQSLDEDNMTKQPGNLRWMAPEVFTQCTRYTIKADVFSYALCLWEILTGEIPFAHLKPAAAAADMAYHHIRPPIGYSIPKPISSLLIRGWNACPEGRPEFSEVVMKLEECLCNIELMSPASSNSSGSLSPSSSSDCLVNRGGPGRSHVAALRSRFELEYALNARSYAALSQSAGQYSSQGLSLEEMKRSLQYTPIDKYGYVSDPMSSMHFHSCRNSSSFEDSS
Chain of Rod cGMP-specific 3',5'-cyclic phosphodiesterase subunit alpha (Bos taurus) (P11541 whole entry): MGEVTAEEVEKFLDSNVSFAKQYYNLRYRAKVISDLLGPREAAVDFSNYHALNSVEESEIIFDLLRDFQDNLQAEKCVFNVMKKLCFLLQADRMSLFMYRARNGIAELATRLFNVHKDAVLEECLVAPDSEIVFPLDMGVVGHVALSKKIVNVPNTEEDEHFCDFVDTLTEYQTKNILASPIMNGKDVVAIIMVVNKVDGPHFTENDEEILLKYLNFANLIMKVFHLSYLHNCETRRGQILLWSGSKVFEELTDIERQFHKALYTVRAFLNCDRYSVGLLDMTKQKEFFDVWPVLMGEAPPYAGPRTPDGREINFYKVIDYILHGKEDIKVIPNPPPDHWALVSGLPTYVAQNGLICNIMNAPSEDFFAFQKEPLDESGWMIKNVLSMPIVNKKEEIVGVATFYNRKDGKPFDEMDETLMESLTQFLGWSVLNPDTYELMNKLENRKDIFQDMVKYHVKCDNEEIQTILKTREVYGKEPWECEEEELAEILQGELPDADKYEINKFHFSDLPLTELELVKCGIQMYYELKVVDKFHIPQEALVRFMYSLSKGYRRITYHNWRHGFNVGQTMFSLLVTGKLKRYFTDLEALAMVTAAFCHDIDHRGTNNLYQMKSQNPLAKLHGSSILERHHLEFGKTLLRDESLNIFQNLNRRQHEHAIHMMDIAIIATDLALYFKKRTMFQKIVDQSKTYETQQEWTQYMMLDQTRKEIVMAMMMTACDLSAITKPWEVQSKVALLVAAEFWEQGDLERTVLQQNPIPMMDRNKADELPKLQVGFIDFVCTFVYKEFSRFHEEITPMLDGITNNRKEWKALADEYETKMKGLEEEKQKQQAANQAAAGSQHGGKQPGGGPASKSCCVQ
Chain of Death-associated protein kinase 1 (Homo sapiens) (P53355 whole entry, looked up): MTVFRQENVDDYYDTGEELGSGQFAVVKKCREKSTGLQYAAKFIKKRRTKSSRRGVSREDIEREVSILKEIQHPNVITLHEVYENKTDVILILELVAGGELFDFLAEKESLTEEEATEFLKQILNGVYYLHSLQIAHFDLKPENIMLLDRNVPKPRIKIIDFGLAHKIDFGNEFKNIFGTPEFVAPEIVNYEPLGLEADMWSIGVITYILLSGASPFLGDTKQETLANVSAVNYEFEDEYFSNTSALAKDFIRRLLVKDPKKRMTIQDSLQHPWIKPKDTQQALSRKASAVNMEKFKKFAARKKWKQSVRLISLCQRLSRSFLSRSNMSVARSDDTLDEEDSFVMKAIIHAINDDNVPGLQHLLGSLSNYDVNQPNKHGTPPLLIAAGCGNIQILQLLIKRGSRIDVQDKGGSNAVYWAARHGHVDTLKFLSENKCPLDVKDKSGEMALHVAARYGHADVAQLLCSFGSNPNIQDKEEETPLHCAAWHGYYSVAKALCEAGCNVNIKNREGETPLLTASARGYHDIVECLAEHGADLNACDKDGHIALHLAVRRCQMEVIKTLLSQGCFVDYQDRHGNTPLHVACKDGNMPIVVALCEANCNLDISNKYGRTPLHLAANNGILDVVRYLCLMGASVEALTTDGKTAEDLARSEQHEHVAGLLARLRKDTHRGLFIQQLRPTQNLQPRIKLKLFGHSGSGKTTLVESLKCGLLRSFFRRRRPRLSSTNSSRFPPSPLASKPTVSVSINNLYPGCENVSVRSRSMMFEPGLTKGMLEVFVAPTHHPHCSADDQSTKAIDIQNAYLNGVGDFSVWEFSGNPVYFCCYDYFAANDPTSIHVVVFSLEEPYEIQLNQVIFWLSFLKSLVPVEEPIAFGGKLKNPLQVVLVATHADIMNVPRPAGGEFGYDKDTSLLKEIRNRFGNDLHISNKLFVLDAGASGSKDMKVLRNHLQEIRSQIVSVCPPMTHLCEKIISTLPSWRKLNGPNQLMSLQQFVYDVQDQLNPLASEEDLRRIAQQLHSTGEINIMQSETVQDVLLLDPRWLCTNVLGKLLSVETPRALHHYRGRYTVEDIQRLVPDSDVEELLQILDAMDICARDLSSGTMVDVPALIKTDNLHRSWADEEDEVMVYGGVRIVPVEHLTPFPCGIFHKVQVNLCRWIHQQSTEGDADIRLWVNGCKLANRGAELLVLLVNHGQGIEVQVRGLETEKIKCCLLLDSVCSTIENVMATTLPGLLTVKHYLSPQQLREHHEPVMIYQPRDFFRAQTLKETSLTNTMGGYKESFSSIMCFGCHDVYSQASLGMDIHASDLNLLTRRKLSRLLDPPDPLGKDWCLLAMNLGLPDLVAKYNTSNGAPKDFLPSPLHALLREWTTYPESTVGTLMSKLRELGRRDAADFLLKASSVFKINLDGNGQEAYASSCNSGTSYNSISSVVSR
Chain of Ribosomal protein S6 kinase alpha-4 (Homo sapiens) (O75676 whole entry, looked up): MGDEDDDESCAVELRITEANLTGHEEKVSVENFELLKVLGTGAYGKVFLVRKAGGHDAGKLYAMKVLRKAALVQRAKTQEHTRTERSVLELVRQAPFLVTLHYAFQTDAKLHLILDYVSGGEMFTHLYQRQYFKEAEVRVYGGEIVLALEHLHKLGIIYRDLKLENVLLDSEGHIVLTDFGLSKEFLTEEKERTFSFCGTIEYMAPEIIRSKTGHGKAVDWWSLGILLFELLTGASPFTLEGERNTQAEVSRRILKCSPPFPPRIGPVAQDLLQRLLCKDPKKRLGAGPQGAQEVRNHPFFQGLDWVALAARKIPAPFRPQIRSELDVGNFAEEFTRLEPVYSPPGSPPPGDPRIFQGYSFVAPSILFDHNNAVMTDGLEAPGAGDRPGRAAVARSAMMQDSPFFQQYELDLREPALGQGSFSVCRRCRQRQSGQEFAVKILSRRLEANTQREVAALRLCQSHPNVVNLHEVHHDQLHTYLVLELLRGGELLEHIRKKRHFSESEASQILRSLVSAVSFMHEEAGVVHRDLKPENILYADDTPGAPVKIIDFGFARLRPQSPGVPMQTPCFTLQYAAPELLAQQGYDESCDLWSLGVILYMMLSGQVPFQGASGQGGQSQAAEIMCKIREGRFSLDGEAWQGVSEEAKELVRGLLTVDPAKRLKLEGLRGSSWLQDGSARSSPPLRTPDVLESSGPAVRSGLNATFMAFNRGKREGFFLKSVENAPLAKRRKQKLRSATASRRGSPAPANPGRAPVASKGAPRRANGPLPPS

CN(C)C(=O)Cn1cc(-c2nc(C3(c4ccc(-c5cnc(N)nc5)cc4)CC3)no2)cn1 [BI 0153]
inactive: [1] 100%

CN(C)C(=O)Cn1cc(-c2nc([C@@](C)(c3ccc(-c4cnc(N)nc4)cc3)C3CC3)no2)cn1 [BI 665915]
inactive: [2] 101% | [3] 100% | [4] 97% | [5] 94% | [6] 108% | [7] 102% | [8] 97% | [9] 101% | [10] 103% | [11] 95% | [12] 96.5% | [13] 96% | [14] 101% | [15] 99% | [16] 99.5% | [17] 102%
